Consider five compounds from patent US20070087978A1, “Method of Controlling Animal Pests” (priority 1999, published 2007).

Data set [1] concerns Erwinia (Fireblight). As to conditions: in vivo. The text has this:
A series of foliar sprays was applied before, during and after bloom and later in the season as needed. […] This unexpected, unusual multiple benefit indicates a phytotherapeutic defense wherein the copper molecule, it is believed, is rendered metabolizable by the plant, thereby enhancing its own defense characteristics. The molecule of copper is rendered systemic so that its action is accomplished, most importantly, inside the treated plants. Thus a continuity of protection and a reinvigorating effect on the plant are assured, which is evidenced by the quantity and unblemished quality of the fruit.
In a replicated study with controls, 10 foliar sprays were applied between March and August at times most useful to control the disease in the course of the season's adverse weather variables which encourage Erwinia. By the time of harvest, the normal state of distress of the trees' photosynthetic activity with standard copper bactericides such as copper oxychloride or the classic Bordeau mixture was missing. The consequences of this physiology were very evident at the time of harvest quantitatively and qualitatively.

The subject of data set [2] is silverleaf whitefly, Bemista argentifolii. The format is in vivo. Conditions: 3 days after treatment, rate 2.5 oz/10 gal. water. The method, then:
In another study, twenty poinsettia plants were planted into 6.0 inch containers and were grown in a greenhouse and arranged in a completely randomized design (CRD). […] Plants were sampled before (precount) and 3 days after treatment (DAT) by randomly harvesting 10 leaves from each plant and then counting the number of live and dead whitefly nymphs.
All data were analyzed in a completely randomized design using a two-way analysis of variance (ANOVA) for the number of live whitefly nymphs and percent mortality 3 days after treatment. Percent mortality was determined by dividing the number of dead whiteflies by the total number of whiteflies (alive and dead).

The subject of data set [3] is Erwinia Amylovora. Kind of data set: KT-19827 compared with an SAR on pear with Erwinia. It counts as in vivo. The source says: Systemic Activator Resistance (SAR) materials affect the treated plant so it resists outbreaks of disease over longer periods of time. KT-19827 was compared with a leading commercial SAR called Bion or Actiguard (Acibenszolar-S-Methyl by Novaritis) against Erwinia Amylovora on pear trees, variety “Butirra”. The test was for the full growing season. Efficacy against Erwinia on the trees and fruit was 98% for […], 73.6% for Bion and zero on the untreated control pear trees. Standard label rates for each product were applied as a foliar spray in an equal manner.
The study was not designed to measure the comparative quantity of pears produced on the three plots.

Data set [4] has as its system white flies. Kind of data set: Control of white flies on poinsettia. It counts as in vivo. The source says: It was compared to untreated plants or plants treated with the commercial insecticides Bifenthrin, Neem Oil or Acephate.
The subject of data set [5] is two spotted spider mite, Tetranychus urticae. The data set is described as follows: Spider mite control on greenhouse-grown potted miniature roses. The format is in vivo. Conditions: rate 0.4 oz. per 10 gallons. The text has this:
Mites are a serious pest of plants grown throughout the world. […] It was compared to untreated control plants or plants treated with the commercial miticide, Avermectin, (Avid) at 0.4 oz. Per 10 gallons. There were six replicate plants per treatment. Adult and nymph spider mites were counted on three areas of each plant (upper, middle, lower). The sum of these three measurements is presented.

Data set [6] concerns Spider Mite. It counts as in vivo. As to conditions: 0.4 ounces per 10 gallons. How it is done:
Another experiment was conducted on Marigolds in 6-inch pots. […] It was compared to untreated controls, the commercial miticide Avermectin (Avid, Merck) at 0.4 ounces per 10 gallons, and the commercial Neem-based insecticide Triact 90 at 10.0 mL per liter. There were 6 replications. Plant samples of 5 leaves were taken randomly from upper to lower plant areas.

For data set [7], the system named is nematode Aphielenchoides frageria. The data set is described as follows: Nematode trial on Anemone vitfolia. It counts as in vivo. As to conditions: repeated measure ANOVA and Kruskal-Wallis ANOVA. The text has this: In another trial, no control of the nematode Aphielenchoides […] on Anemone vitfolia was found as to nematode count when measured by repeated measure analysis of variance (ANOVA) and non-[…] for either KT-19827 or Avermectin. […] The symptomatic leaf analysis was done at the end of the 12 week trial period, during which 6 sprays were applied at 2 week intervals. ANOVA was the analytical measurement methodology.

As for “tannate complex of picro cupric ammonium formate [KT-19827]”, the “damage to tender tissue (blooms)” value in data set [1] is listed as “without damage to tender blooms”.

As to `CCOP(=S)(OCC)Oc1nc(Cl)c(Cl)cc1Cl` [Chlorpyrifos, chlorpyrifos], the “Live Whitefly Nymphs (3 DAT)” value in data set [2] is given as 143.0bc. Moreover, in data set [2] (dead / total whiteflies), the “% Mortality” value is on record as 34.0ab %.

Take `CSC(=O)c1cccc2nnsc12` [Bion, Acibenszolar-S-Methyl]: the “packets of harvested pears showing evidence of disease” value in data set [3] (at harvest) is recorded as 17 out of 238. Also, the “Efficacy against Erwinia on the trees and fruit” value in data set [3] (pear variety Butirra, full growing season, standard label rates, foliar spray) is on record as 73.6%.

`Cc1c(COC(=O)[C@@H]2[C@H](/C=C(\Cl)C(F)(F)F)C2(C)C)cccc1-c1ccccc1` (racemic) [Befenthria, Bifenthrin]: the “Mean Number of White Flies” value in data set [4] (6 Days After Treatment, rate 0.1) is listed as 27.7 living whitefly immatures per leaf; in data set [4] (10 Days After Treatment, rate 0.1), 8.7 living whitefly immatures per leaf.

As for `CC[C@H](C)[C@H]1O[C@]2(C=C[C@@H]1C)C[C@@H]1C[C@@H](C/C=C(\C)[C@@H](O[C@H]3C[C@H](OC)[C@@H](O[C@H]4C[C@H](OC)[C@@H](O)[C@H](C)O4)[C@H](C)O3)[C@@H](C)/C=C/C=C3\CO[C@@H]4[C@H](O)C(C)=C[C@@H](C(=O)O1)[C@]34O)O2` [Avermectin], the “Mean Number of Adult and Nymph Mites” value is reported as 0b in data set [5] (6 Days After Treatment, sum of upper, middle, lower plant areas); 0.2b in data set [5] (10 Days After Treatment); 0.7b in data set [5] (16 Days After Treatment). Also, the “mite population, Week 2” value in data set [6] came to 6.2c. Moreover, the “mite population, Week 3” value in data set [6] came out at 23.8c. Besides, in data set [6] (samples of 5 leaves), the “mite population, Week 1” value came to 0.0b. The “Mean Number of White Flies” value is given as 26.8 living whitefly immatures per leaf in data set [4] (6 Days After Treatment, rate 0.5) and 44.5 living whitefly immatures per leaf in data set [4] (10 Days After Treatment, rate 0.5). Further, the “control as to nematode count” value in data set [7] is listed as “no control”.
